Results reported in patent publication US10071103B2, “Treatments for resistant acne” (VYOME BIOSCIENCES PVT. LTD., priority 2014, dated 2018).
Converted amounts (≈) assume the structure as drawn. Like-named read-outs stand apart in the source and are kept apart here.

Assays:
[1] = tested on: P. acnes clinical isolates; assay: MIC of P. acnes isolated from acne patients (clinical isolates); conditions: for MIC: Cutibacterium acnes, clinical isolate susceptible to clindamycin and erythromycin;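 for MIC: MIC in µg/mL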;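 for all read-outs here: anaerobic 96-well plate assay at 37 °C over 72 h, with Alamar blue dye as read-out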
Protocol: P. acnes were cultured in Brain Heart Infusion Agar (BHIA) at 37° C. for 48 hours under anaerobic condition. […] For bacterial inoculum, P. acnes culture turbidity was adjusted to 0.5 McFarland standard (approximately 1.5×10^8) and further diluted (100 times with sterile BHI broth). Diluted P. acnes suspension (100 μl) was added to each well except sterility control wells (column 12 of 96 well plate). Inoculated plates were incubated at 37° C. for 72 hours under anaerobic condition. After incubation, MIC was determined by adding Alamar blue dye.

P. acnes CCARM 9010 = assay: MIC by micro broth dilution (Alamar blue), clindamycin-resistant/nonresponsive P. acnes; type: cell-based, Propionibacterium acnes; conditions: clindamycin-nonresponsive CCARM 9010
Protocol: (§1) The plates were incubated at 37° C. for 48 h under anaerobic condition for P. acnes and 37° C. for 24 h for S. aureus The plates were read under Bio-Rad plate reader at 595 nm for optical density to generate the dose-response curves. The MIC of the test compound was recorded by addition of Alamar blue dye.
(§2) P. acnes (MTCC 3297, MTCC 1951& CCARM 9010) are cultured in Brain Heart Infusion (BHI) Broth at 37° C. for 48-72 h under anaerobic condition. The test compounds/formulations are initially diluted with suitable solvent and further diluted with BHI broth to get the required concentrations. Samples (100 μl) of different concentrations (prepared by serial dilution) are added to 96-well plate. To the wells, 100 μl of P. acnes BHI broth culture is added [culture turbidity adjusted against 0.5 McFarland standard (approx 1.5×10^8), and further diluted 100-fold with sterile BHI broth]. In addition Growth Control and Sterility Control are created using 100 μl each of P. acnes BHI broth culture and plain BHI broth, respectively.
(§3) Plates are incubated at 37° C. for 48-72 hrs under anaerobic condition. The plate is read under Bio-Rad plate reader @ 595 nm for optical density to generate the dose-response curves. The MIC of the test compound is recorded by addition of Alamar blue dye.

P. acnes MTCC 1951 [2] = assay: MIC by micro broth dilution (Alamar blue), clindamycin-susceptible P. acnes; type: cell-based, Propionibacterium acnes; conditions: Cutibacterium acnes, MTCC1951; Table 7; against P. acnes; read-out: MIC
Protocol: as §1, §2, §3
BHI broth and BHI agar media were prepared as per the manufacturer's instruction and autoclaved at 121° C. for 15 minutes. […] For MIC determination testing, gels are dissolved in the solvent and further diluted with BHI broth. Then, 96 wells plate are filled with 100 μl of BHI broth containing drug with different concentration to get the final concentrations of 0.06, 0.13, 0.25, 0.5, 1 and 2 μg/ml in different lanes (lane 1 to lane 6). Remaining lanes of the 96 well plate are used as growth control and sterility control. Finally, P. acnes culture suspension (approx 1.5×10^6) is added in all the wells except sterility control wells and plate is incubated at 37° C. for 48-72 h under anaerobic condition. At the end of 72 h, Alamar blue solution (20 μl) is added into the wells and incubated at 37° C. for 2 h. Plate is visualized for bacterial inhibitions and MIC values of the tested samples are determined. […]

P. acnes MTCC 1951 [3] = type: cell-based, Propionibacterium acnes; conditions: for MPC/MIC: ratio against P. acnes
Protocol: 3 to 4 Petri plates containing 48 h P. acnes culture was suspended in sterile Phosphate buffer saline, PBS (pH 7.2) and turbidity was adjusted to optical density of 1 at 600 nm (10^9 cells/ml). 50 ml of this culture suspension was centrifuged at 4000 rpm for 40 min. The supernatant was discarded and pellet resuspended in 250 μl of sterile PBS. 50 μl of these cell suspensions (10^10 cells) was spread over the plates containing various concentrations of antibiotics (around MIC range). Plates were incubated at 37° C. for 48 h and the lowest concentration of the drug that allowed no growth was taken as its MPC.

CC[C@H]1OC(=O)[C@H](C)[C@@H](O[C@H]2C[C@@](C)(OC)[C@@H](O)[C@H](C)O2)[C@H](C)[C@@H](O[C@@H]2O[C@H](C)C[C@H](N(C)C)[C@H]2O)[C@](C)(O)C[C@@H](C)C(=O)[C@H](C)[C@@H](O)[C@]1(C)O [Erythromycin, erythromycin]
Susceptibility of P. acnes isolated from volunteers V3 and V21 (in words) [1]: resistance
Susceptibility of clindamycin-nonresponder clinical isolates (in words) [1]: wide variation in sensitivity
Susceptibility of clinical isolates susceptible to clindamycin and erythromycin (in words) [1]: susceptible
MIC ([1]; P. acnes strain V2-9): < 0.03 µg/mL
MIC ([1]; P. acnes strain V2-10): < 0.03 µg/mL
MIC ([1]; P. acnes strain V3-9): < 0.03 µg/mL
MIC ([1]; P. acnes strain V3-10): < 0.03 µg/mL
MIC ([1]; P. acnes strain V4-6): < 0.03 µg/mL
MIC ([1]; P. acnes strain V4-8): < 0.03 µg/mL
MIC ([1]; P. acnes strain V4-13): < 0.03 µg/mL
MIC ([1]; P. acnes strain V5-2): < 0.03 µg/mL
MIC ([1]; P. acnes strain V5-5): < 0.03 µg/mL
MIC ([1]; P. acnes strain V5-7): < 0.03 µg/mL
MIC ([1]; P. acnes strain V6-5): < 0.03 µg/mL
MIC ([1]; P. acnes strain V6-6): < 0.03 µg/mL
MIC ([1]; P. acnes strain V6-7): < 0.03 µg/mL
MIC ([1]; P. acnes strain V7-3): < 0.03 µg/mL
MIC ([1]; P. acnes strain V7-4): < 0.03 µg/mL
MIC ([1]; P. acnes strain V7-14): < 0.03 µg/mL
MIC ([1]; P. acnes strain V9-6E): < 0.09 µg/mL
MIC ([1]; P. acnes strain V12-2E): < 0.09 µg/mL
MIC ([1]; P. acnes strain V13-3E): < 0.09 µg/mL
MIC ([1]; P. acnes strain V14-2E): < 0.09 µg/mL
MIC ([1]; P. acnes strain V15B-1E): 0.19 µg/mL
MIC ([1]; P. acnes strain V17-3E): 0.78 µg/mL
MIC ([1]; P. acnes strain V18-4E): 0.19 µg/mL
MIC ([1]; P. acnes strain V19-2E): < 0.09 µg/mL
MIC ([1]; P. acnes strain V20-5E): < 0.09 µg/mL

CC[C@H]1OC(=O)[C@H](C)[C@@H](O[C@H]2C[C@@](C)(OC)[C@@H](O)[C@H](C)O2)[C@H](C)[C@@H](O[C@@H]2O[C@H](C)C[C@H](N(C)C)[C@H]2O)[C@](C)(O)C[C@@H](C)/C(=N\OCOCCOC)[C@H](C)[C@@H](O)[C@]1(C)O [Roxithromycin]
Activity / bacterial killing, dose response curve (in words) (P. acnes CCARM 9010): resistant

CC1CCc2c(N3CCC(O)CC3)c(F)cc3c(=O)c(C(=O)O)cn1c23 (stereo not drawn) [Nadifloxacin]
MIC (P. acnes MTCC 1951 [2]): 0.13 µg/mL (≈ 0.361 µM)
MPC (P. acnes MTCC 1951 [3]; P. acnes, 10^10 cells inoculum): 1.2 µg/mL
MPC/MIC (P. acnes MTCC 1951 [3]): 9.2
MPC/MIC (P. acnes MTCC 1951 [3]; listed as nadifloxacin): ~8
